# Measured values from patent publication US9346820B2, “HIV-1 protease inhibitors having gem-di-fluoro bicyclic P2-ligands” (priority 2013, dated 2016).
# Columns and labels:
# HIV-1LPV^R5μM = test: microbe, parasite or virus in culture; assay type: cell-based; details: Human immunodeficiency virus 1, MT4, read-out: EC50 HIV-1LPV^R5μM
# Method: (§1) The susceptibility of HIV-1LAI to various drugs was determined as previously described with minor modifications. Briefly, MT-2 cells (10^4/ml) were exposed to 100 50% tissue culture infectious doses (TCID50) of HIV-1LAI in the presence or absence of various concentrations of drugs in 96-well microculture plates and were incubated at 37° C. for 7 days. After 100 μl of the medium was removed from each well, 3-(4,5-dimetylthiazol-2-yl)-2,5-diphenyltetrazolium bromide (MTT) solution (10 μl, 7.5 mg/ml in phosphate-buffered saline) was added to each well in the plate, followed by incubation at 37° C. for 2 h. […] All assays were performed in duplicate or triplicate. […] To determine the sensitivity of primary HIV-1 isolates to drugs, phytohemagglutinin-stimulated peripheral blood mononuclear cells (PHA-PBMC) (10^6/ml) were exposed to 50 TCID50 of each primary HIV-1 isolate and cultured in the presence or absence of various concentrations of drugs in 10-fold serial dilutions in 96-well microculture plates. In determining the drug susceptibility of certain laboratory HIV-1 strains, MT-4 cells were employed as target cells as previously described with minor modifications. In brief, MT-4 cells (10^5/ml) were exposed to 100 TCID50 of drug-resistant HIV-1 strains in the presence or absence of various concentrations of drugs and were incubated at 37° C. On day 7 of culture, the supernatants were harvested and the amounts of p24 Gag protein were determined by using a fully automated chemiluminescent enzyme immunoassay system (Lumipulse F: Fujirebio Inc., Tokyo). […] All assays were performed in duplicate or triplicate. PHA-PBMs were derived from a single donor in each independent experiment. Thus, for obtaining the data, three different donors were recruited.
# HIV-1ATV^R5μM = test: microbe, parasite or virus in culture; assay type: cell-based; details: Human immunodeficiency virus 1, MT4, read-out: EC50 HIV-1ATV^R5μM
# Method: as §1
# HIV-1SQV^R5μM = test: microbe, parasite or virus in culture; assay type: cell-based; details: Human immunodeficiency virus 1, MT4, read-out: EC50 HIV-1SQV^R5μM
# Method: as §1
# HIV-1APV^R5μM = test: microbe, parasite or virus in culture; assay type: cell-based; details: Human immunodeficiency virus 1, MT4, read-out: EC50 HIV-1APV^R5μM
# Method: as §1
# [1] = test system: HIV-1GRL-04810^RP18, and HIV-1GRL-05010^RP10; test: p24 assay, the two GRL-selected variants taken together; assay type: cell-based; details: Human immunodeficiency virus 1, read-out: EC50 values against HIV-1GRL-04810^RP18 and HIV-1GRL-05010^RP10
# Method: as §1
# HIV-1GRL05010^RP10 = test: microbe, parasite or virus in culture; assay type: cell-based; details: Human immunodeficiency virus 1, MT4, read-out: EC50 HIV-1GRL05010^RP10
# Method: as §1
# (§2) The amounts of p24 were measured every two days for up to 7 days.
# HIV-1GRL04810^RP18 = test: microbe, parasite or virus in culture; assay type: cell-based; details: Human immunodeficiency virus 1, MT4, read-out: EC50 HIV-1GRL04810^RP18
# Method: as §1, §2
# HIV-1NL4-3 = test: p24 Gag production inhibition in MT-4 cells, wild-type laboratory strain; assay type: cell-based; details: Human immunodeficiency virus 1, MT4; MT-4 cells, p24 Gag endpoint; read-out: EC50 HIV-1NL4-3
# Method: as §1
# HIV-1ERS104pre = test: p24 Gag production inhibition in PHA-PBMs, wild-type clinical isolate; assay type: cell-based; details: Human immunodeficiency virus 1; PHA-PBMs, p24 Gag endpoint; read-out: EC50 HIV-1ERS104pre (X4)
# Method: (§3) All primary HIV-1 strains were passaged once or twice in 3-day-old phytohemagglutinin activated peripheral blood mononuclear cells (PHA-PBM), and the culture supernatants were stored at −80° C. until use.
# as §1
# HIV-1MDR/G = test: microbe, parasite or virus in culture; assay type: cell-based; details: Human immunodeficiency virus 1, read-out: EC50 HIV-1MDR/G (X4)
# Method: as §3, §1
# HIV-1MDR/JSL = test: microbe, parasite or virus in culture; assay type: cell-based; details: Human immunodeficiency virus 1, read-out: EC50 HIV-1MDR/JSL (R5)
# Method: as §3, §1
# HIV-1MDR/B = test: microbe, parasite or virus in culture; assay type: cell-based; details: Human immunodeficiency virus 1, read-out: EC50 HIV-1MDR/B (X4)
# Method: as §3, §1
# HIV-1MDR/TM = test: microbe, parasite or virus in culture; assay type: cell-based; details: Human immunodeficiency virus 1, read-out: EC50 HIV-1MDR/TM (X4)
# Method: as §3, §1
# HIV-1MDR/MM = test: microbe, parasite or virus in culture; assay type: cell-based; details: Human immunodeficiency virus 1, read-out: EC50 HIV-1MDR/MM (R5)
# Method: as §3, §1
# HIV-1MDR/C = test: microbe, parasite or virus in culture; assay type: cell-based; details: Human immunodeficiency virus 1, read-out: EC50 HIV-1MDR/C (X4)
# Method: as §3, §1
# [2] = Cytotoxicity (CC50), MTT assay; assay type: cell-based; details: human; 50% cytotoxicity; read-out: CC50
# Method: The susceptibility of HIV-1LAI to various drugs was determined as previously described with minor modifications. Briefly, MT-2 cells (10^4/ml) were exposed to 100 50% tissue culture infectious doses (TCID50) of HIV-1LAI in the presence or absence of various concentrations of drugs in 96-well microculture plates and were incubated at 37° C. for 7 days. After 100 μl of the medium was removed from each well, 3-(4,5-dimetylthiazol-2-yl)-2,5-diphenyltetrazolium bromide (MTT) solution (10 μl, 7.5 mg/ml in phosphate-buffered saline) was added to each well in the plate, followed by incubation at 37° C. for 2 h. […] All assays were performed in duplicate or triplicate. […] In determining the drug susceptibility of certain laboratory HIV-1 strains, MT-4 cells were employed as target cells as previously described with minor modifications. In brief, MT-4 cells (10^5/ml) were exposed to 100 TCID50 of drug-resistant HIV-1 strains in the presence or absence of various concentrations of drugs and were incubated at 37° C. On day 7 of culture, the supernatants were harvested and the amounts of p24 Gag protein were determined by using a fully automated chemiluminescent enzyme immunoassay system (Lumipulse F: Fujirebio Inc., Tokyo). […] All assays were performed in duplicate or triplicate. PHA-PBMs were derived from a single donor in each independent experiment. Thus, for obtaining the data, three different donors were recruited.
# HIV-1LAI = test: Antiviral activity of brain-side medium from the BBB assay, MTT assay in MT-2 cells; assay type: cell-based; details: HIV-1LAI
# Method: The “brain-side” of the medium containing a compound collected in the BBB in vitro assay, was subjected to antiviral assays. Two HIV-1 isolates were employed, HIV-1LAI (Panel A) and HIV-1ERS104pre (Panel B). […] Dilution ranges were between 10-fold and 10,000-fold, and the percentage of viral inhibition was used as an endpoint. […] Assays were conducted in duplicate and error bars show standard deviations.
# The assay was carried out using 10, 100, 1000 and 10000 times-diluted brain-side stocks of compounds.
# [3] = Apparent BBB permeability coefficient, in vitro BBB model (BBB Kit); details: rat and monkey
# Method: (§4) The BBB Kit™ was kept at −80° C. until thawing on day 0 of the experiments. Nutritional medium was added to both brain and blood sides of the wells. This solution consists of DMEM F-12 medium with FCS 10% v/v, heparin 100 μg/ml, basic fibroblast growth factor (bFGF) 1.5 ng/ml, insulin 5 μg/ml, transferrin 5 μg/ml, sodium selenite 5 ng/ml, hydrocortisone 500 nM and gentamycin 50 μg/ml. Fresh medium was added 3 hours after thawing following the manufacturer's instructions, and 24 hours later. The plates were incubated at 37° C. until day 4 of the experiment when the condition of astrocytes was checked under a light microscope. Following this, the integrity of the collagen-coated membrane was verified by the measurement of the transendothelial electrical resistance (TEER) using an ohmmeter provided by the manufacturer. […] Detailed information regarding the components of the BBB Kit as well as its mechanisms can be seen by accessing the manufacturer's website http://www.pharmacocell.co.jp/en/bbb/index_e.html.
# (§5) Standard curves were generated for each compound on a light spectrophotometer as previously described. 100 μM of each compound was added to the luminal (blood side) of the wells, incubated at 37° C. for 30 minutes and then, the amount of drug that crossed the in vitro BBB was collected and measured under a light spectrophotometer at 230 nanometer absorbances.
# (§6) Papp was calculated using the following mathematical formula: […]
# (§7) This model (BBB Kit™) is thought to represent an in vitro BBB model for drug transport assays, permitting an adequate cross-talk of the cell lines involved and provide a way to test an apparent passage of small molecules across the BBB as previously described by Nakagawa et al. (41). […] The concentrations of each compound that permeated into the abluminal interface (termed “brain side”) were determined using a spectrophotometer, 30 min after the addition of each drug to the wells.
# (§8) The mathematical formula used for the calculation of Papp is described in Materials and Methods.
# [4] = test system: triple culture of rat-derived astrocytes, pericytes and monkey-derived endothelial cells; test: as above; details: 100 μM on luminal (blood) side, 30 min, brain side measured at 230 nm
# Method: as §4, §5, §6, §7, §8
smiles,measurement,setting,value
"CC(C)CN(C[C@@H](O)[C@H](Cc1ccccc1)NC(=O)O[C@H]1CCOC1)S(=O)(=O)c1ccc(N)cc1 [APV, Amprenavir]",EC50,HIV-1LPV^R5μM,33 nM
same,EC50,HIV-1ATV^R5μM,> 1000 nM
same,EC50,HIV-1SQV^R5μM,435 nM
same,EC50,HIV-1APV^R5μM,> 1000 nM
same,EC50,[1],> 1000 nM
same,EC50,HIV-1GRL05010^RP10,> 1000 nM
same,EC50,HIV-1GRL04810^RP18,> 1000 nM
same,EC50,HIV-1NL4-3,81 nM
same,EC50,HIV-1ERS104pre,29.5 nM
same,EC50,HIV-1MDR/G,310 nM
same,EC50,HIV-1MDR/JSL,630 nM
same,EC50,HIV-1MDR/B,490 nM
same,EC50,HIV-1MDR/TM,328 nM
same,EC50,HIV-1MDR/MM,270 nM
same,EC50,HIV-1MDR/C,210 nM
same,CC50 at 7 days,[2],> 100000 nM
"CC(C)(C)NC(=O)[C@@H]1CN(Cc2cccnc2)CCN1C[C@@H](O)C[C@@H](Cc1ccccc1)C(=O)N[C@H]1c2ccccc2C[C@H]1O [IDV, Indinavir]",suppression levels of brain-side preparations compared (FIG. 5A),HIV-1LAI,less than those of GRL-04810^brain and GRL-05010^brain
"Cc1cccc(C)c1OCC(=O)N[C@@H](Cc1ccccc1)[C@@H](O)C[C@H](Cc1ccccc1)NC(=O)[C@H](C(C)C)N1CCCNC1=O [LPV, Lopinavir]",EC50,HIV-1LPV^R5μM,> 1000 nM
same,EC50,HIV-1NL4-3,35 nM
same,EC50,HIV-1ERS104pre,33 nM
same,EC50,HIV-1MDR/JSL,> 1000 nM
same,CC50 at 7 days,[2],26800 ± 900 nM
Cn1c(=O)c2c(ncn2C)n(C)c1=O [caffeine],"Papp at 30 min, 100 μM",[3],100 ×10⁻⁶ cm/s
same,Final abluminal tracer concentration,[4],6.60 µM
